Measurements: US20220363870A1, “Stain Resistant Additive” (Arxada AG, priority 2019, published 2022)
Several values for one entry are separate records, joined by “and”; a condition that tells them apart may be missing. Identical values can stand only once.

Tested on: 4 algal species
Experiment: Resistance of Paint Films to Algal Defacement (Modified ASTM Method D5589)
Type: cell-based
Design: key to 4 wk Rating / 10 wk Rating / 14 wk Rating: 0 showing no growth; 4 showing the highest growth
Settings: for Average 4 week rating: paint of Example 1, scale 0-4
Method: Procedure (Modified ASTM Method D5589): • 1. Sample substrates are coated with the corresponding paint samples containing the targeted amount of additive and antimicrobial. • 2. Depending upon the test conditions, samples are subjected to UV, leaching conditions, standard conditions, or a combination thereof. Leaching was performed for up to 7 days and with or without up to 600 hr of QUV in a weathering chamber. • 3. 4 algal species are used and inoculated every 2 weeks, including up to 18 weeks. Fresh plates were replaced at weeks 4, 10, 14, and 18. • 4. Ratings are scored on a range of 0-4, with 0 showing no growth and 4 showing the highest growth.

**Q.** `CCCCCCCCn1sccc1=O` [N-octylisothiazolinone] was tested. Which “Average 4 week rating” value (Biocide 350 ppm + Additive 1,000 ppm) did it give?
**A.** The value was 3.7.

**Q.** And the “Average 4 week rating” value (Biocide 350 ppm + Additive 3,000 ppm)?
**A.** The value was 1.7.

**Q.** What about the “Average 4 week rating” value (Biocide 350 ppm, no additive) of the same compound?
**A.** The value was 2.7.

**Q.** What about the “Average 4 week rating” value (Biocide 700 ppm + Additive 1,000 ppm) of the same compound?
**A.** Its value is 0.7.

**Q.** And the “Average 4 week rating” value (Biocide 700 ppm + Additive 3,000 ppm)?
**A.** The value was 0.0.

**Q.** What about the “Average 4 week rating” value (Biocide 700 ppm, no additive) of the same compound?
**A.** The value was 1.0.

**Q.** What about the “Average 4 week rating” value (Biocide 1,050 ppm + Additive 1,000 ppm) of the same compound?
**A.** The value was 0.0.

**Q.** And the “Average 4 week rating” value (Biocide 1,050 ppm + Additive 3,000 ppm)?
**A.** The value was 0.0.

**Q.** And the “Average 4 week rating” value (Biocide 1,050 ppm, no additive)?
**A.** The value was 1.3.

**Q.** Which results are given for Zinc pyrithione?
**A.** 4 wk Rating (Conc. 0.7% in paint of Example 1, algal growth rating 0-4, 4 wk): 0; 10 wk Rating (Conc. 0.7% in paint of Example 1, algal growth rating 0-4, 10 wk): 0; 14 wk Rating (Conc. 0.7% in paint of Example 1, algal growth rating 0-4, 14 wk): 0; 4 wk ZOI (Conc. 0.7% in paint of Example 1, zone of inhibition, 4 wk): 15; 18 wk ZOI (Conc. 0.7% in paint of Example 1, zone of inhibition, 18 wk): 0

**Q.** For “zinc di(ethyl 4,4,4-trifluoroacetoacetate) dihydrate [Additive]”, which “Average 4 week rating” value (Additive 1,000 ppm, no biocide) is on record?
**A.** The value was 3.7.

**Q.** What about the “Average 4 week rating” value (Additive 3,000 ppm, no biocide) of the same compound?
**A.** The value was 2.0.

**Q.** And the “18 wk Rating” value (Conc. 0.3% in paint of Example 1, algal growth rating 0-4, 18 wk, dihydrate)?
**A.** Its value is 3 and 2.

**Q.** What about the “4 wk ZOI” value (Conc. 0.3% in paint of Example 1, zone of inhibition, 4 wk) of the same compound?
**A.** Its value is 0.

**Q.** And the “10 wk ZOI” value (Conc. 0.3% in paint of Example 1, zone of inhibition, 10 wk)?
**A.** The value was 0.

**Q.** And the “14 wk ZOI” value (Conc. 0.3% in paint of Example 1, zone of inhibition, 14 wk)?
**A.** Its value is 0.

**Q.** And the “18 wk ZOI” value (Conc. 0.3% in paint of Example 1, zone of inhibition, 18 wk)?
**A.** Its value is 0.
